Test results from ChEMBL document CHEMBL1201862, “PubChem BioAssay data set” (2004).
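Briefly, cells in 96-well plates were exposed to five compound concentrations for 48 h, and endpoints were estimated by linear interpolation. Abbreviation: GI50, concentration required for 50% inhibition of growth.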 Active and inactive are the calls of the source. Rule as the data show it: active = GI50 up to about 1.1 µM and inactive = higher.

Legend:
Assay in all cases: DTP human tumour cell line panel, 48 h
ACHN = tested on: ACHN
NCI-H23 = tested on: NCI-H23
SK-MEL-2 = tested on: SK-MEL-2
HCT-116 = tested on: HCT-116
RPMI-8226 = tested on: RPMI-8226
KM12 = tested on: KM12
OVCAR-4 = tested on: OVCAR-4
UACC-257 = tested on: UACC-257
NCI-H460 = tested on: NCI-H460
SF-295 = tested on: SF-295
SF-268 = tested on: SF-268
DU-145 = tested on: DU-145
MDA-MB-231 = tested on: MDA-MB-231
UACC-62 = tested on: UACC-62
HL-60 = tested on: HL-60
SF-539 = tested on: SF-539
HCC 2998 = tested on: HCC 2998
Malme-3M = tested on: Malme-3M
HOP-62 = tested on: HOP-62

Measured: GI50

COc1ccc(OC)c(C23CCCC(C2)N(C)CC3)c1 (configuration not stated)
inactive: ACHN 26.9 µM | NCI-H23 32.1 µM | SK-MEL-2 21.8 µM | HCT-116 13.8 µM | RPMI-8226 12.7 µM | KM12 18.4 µM | OVCAR-4 24.9 µM | UACC-257 36.6 µM | NCI-H460 19.2 µM | SF-295 38.5 µM | SF-268 44.6 µM | DU-145 32.7 µM | MDA-MB-231 21.3 µM | UACC-62 20.9 µM

CCOc1ccc(NCC(=O)N2CC(=O)Nc3ccccc32)cc1
inactive: ACHN > 100 µM | HL-60 > 100 µM | NCI-H23 > 100 µM | SK-MEL-2 > 100 µM | HCT-116 > 100 µM | SF-539 > 100 µM | RPMI-8226 > 100 µM | KM12 > 100 µM | HCC 2998 > 100 µM | OVCAR-4 > 100 µM | UACC-257 > 100 µM | NCI-H460 > 100 µM | SF-295 > 100 µM | SF-268 > 100 µM | Malme-3M > 100 µM | HOP-62 > 100 µM | UACC-62 > 100 µM

O=C(/C=C/c1ccc(O)c(O)c1)NCCc1ccc(-c2ccccc2)cc1
inactive: HL-60 28.3 µM | NCI-H23 68.4 µM | SK-MEL-2 > 100 µM | HCT-116 27.3 µM | SF-539 > 100 µM | RPMI-8226 39.4 µM | KM12 30.8 µM | HCC 2998 54.3 µM | OVCAR-4 > 100 µM | UACC-257 > 100 µM | NCI-H460 48.9 µM | SF-295 40.8 µM | SF-268 31.8 µM | DU-145 > 100 µM | Malme-3M 17.9 µM | HOP-62 31.3 µM

COc1cc(/C=c2\sc3n(c2=O)C(c2ccc(Cl)cc2)C2=C(CCCC2C)N=3)cc(OC)c1OC (configuration not stated)
inactive: ACHN > 100 µM | HL-60 > 100 µM | SK-MEL-2 > 100 µM | HCT-116 > 100 µM | RPMI-8226 > 100 µM | KM12 > 100 µM | UACC-257 > 100 µM | SF-268 > 100 µM | DU-145 > 100 µM | HOP-62 > 100 µM | MDA-MB-231 25.9 µM | UACC-62 > 100 µM

CO/N=C(/C)c1cccc(Nc2nc3ccc(Cl)cc3c3[nH]c4ccccc4c23)c1
inactive: ACHN 3.74 µM | HL-60 13.2 µM | NCI-H23 11.5 µM | SK-MEL-2 13.2 µM | HCT-116 4.21 µM | SF-539 15.6 µM | RPMI-8226 3.2 µM | KM12 3.97 µM | UACC-257 14.5 µM | NCI-H460 4.31 µM | SF-295 4.08 µM | SF-268 13 µM | DU-145 12.2 µM | HOP-62 11.7 µM | MDA-MB-231 13.4 µM | UACC-62 6.59 µM

NS(=O)(=O)c1ccc(CNC(=S)NC(=O)Nc2ccc(Cl)c(Cl)c2)cc1
inactive: ACHN 17.5 µM | NCI-H23 14.8 µM | SK-MEL-2 14.6 µM | HCT-116 17.5 µM | SF-539 21.2 µM | RPMI-8226 16 µM | KM12 19 µM | OVCAR-4 31.5 µM | UACC-257 32.8 µM | NCI-H460 25.2 µM | SF-295 16.3 µM | SF-268 21.7 µM | DU-145 33.3 µM | Malme-3M 26.2 µM | HOP-62 18.6 µM | MDA-MB-231 10.6 µM | UACC-62 15.1 µM

CCOc1ccc(NC(=O)/C(=N\NC(C)(C)C)C2C(=O)Nc3ccccc3[S+]2[O-])cc1 (configuration not stated)
inactive: ACHN > 100 µM | HL-60 > 100 µM | NCI-H23 > 100 µM | SK-MEL-2 > 100 µM | HCT-116 > 100 µM | SF-539 > 100 µM | RPMI-8226 20.7 µM | KM12 > 100 µM | HCC 2998 > 100 µM | OVCAR-4 > 100 µM | UACC-257 > 100 µM | NCI-H460 > 100 µM | SF-295 > 100 µM | SF-268 > 100 µM | DU-145 > 100 µM | Malme-3M > 100 µM | HOP-62 > 100 µM | UACC-62 > 100 µM

COC(=O)[C@@H]1CN(C(=O)c2ccccc2)C(=O)N1
inactive: ACHN > 100 µM | HL-60 > 100 µM | NCI-H23 > 100 µM | HCT-116 > 100 µM | SF-539 > 100 µM | RPMI-8226 > 100 µM | KM12 > 100 µM | OVCAR-4 > 100 µM | UACC-257 > 100 µM | NCI-H460 > 100 µM | SF-295 > 100 µM | SF-268 > 100 µM | DU-145 > 100 µM | Malme-3M > 100 µM | HOP-62 > 100 µM | MDA-MB-231 > 100 µM | UACC-62 > 100 µM

C=CCOC1OC(CS(=O)(=O)O)C(OC(C)=O)C(OC(C)=O)C1OC(C)=O (configuration not stated)
inactive: HL-60 > 100 µM | NCI-H23 > 100 µM | SK-MEL-2 > 100 µM | HCT-116 > 100 µM | RPMI-8226 > 100 µM | KM12 > 100 µM | HCC 2998 > 100 µM | OVCAR-4 > 100 µM | UACC-257 > 100 µM | NCI-H460 > 100 µM | SF-295 > 100 µM | DU-145 > 100 µM | Malme-3M > 100 µM | HOP-62 > 100 µM | UACC-62 > 100 µM
